Experimental data reported in ChEMBL document CHEMBL4428130, “Novel benzoquinoline derivatives via unpredicted condensation of ethyl propiolate and naphthylamines: Synthesis and topoisomerase inhibition activity” (2016).
Calls of active or inactive are those of the source. The calls are words filed in the database; no cut-off is given here.

Assays:
HepG2 = test: Growth inhibition of human HepG2 cells after 72 hrs by trypan blue assay; assay type: functional; conditions: HepG2, 72 h
HeLa = test: Growth inhibition of human HeLa cells after 72 hrs by trypan blue assay; assay type: functional
HL-60 = test: Growth inhibition of human HL60 cells after 72 hrs by trypan blue assay; assay type: functional; conditions: HL-60, 72 h
[1] = target: DNA topoisomerase 2-alpha (Homo sapiens) (UniProt P11388); test: Inhibition of human recombinant topoisomerase-2 alpha expressed in Escherichia coli assessed as reduction in supercoiled pBR322 DNA relaxation at 8 uM after 60 mins by ethidium bromide staining based agarose gel electrophoresis
[2] = target: DNA topoisomerase 2-alpha (Homo sapiens) (UniProt P11388); test: Poison activity at human recombinant topoisomerase-2 alpha expressed in Escherichia coli assessed as generation of linear DNA using supercoiled pBR322 DNA at 8 uM after 60 mins by ethidium bromide staining based agarose gel electrophoresis
[3] = target: DNA topoisomerase 2-alpha (Homo sapiens) (UniProt P11388); test: Poison activity at human recombinant topoisomerase-2 alpha expressed in Escherichia coli assessed as generation of linear DNA using supercoiled pBR322 DNA at 100 to 200 uM after 60 mins by ethidium bromide staining based agarose gel electrophoresis
Salmon testes DNA = test: Binding affinity to Salmon testis DNA assessed as drug-DNA complex formation at drug:DNA ratio of 0.08 at 310 to 380 nanometer by linear flow dichroism method; assay type: nucleic-acid assay; conditions: Salmonidae
[4] = target: DNA topoisomerase 2-alpha (Homo sapiens) (UniProt P11388); test: Inhibition of human recombinant topoisomerase-2 alpha expressed in Escherichia coli assessed as reduction in supercoiled pBR322 DNA relaxation after 60 mins by ethidium bromide staining based agarose gel electrophoresis

DNA topoisomerase 2-alpha (Homo sapiens), sequence (P11388 whole entry): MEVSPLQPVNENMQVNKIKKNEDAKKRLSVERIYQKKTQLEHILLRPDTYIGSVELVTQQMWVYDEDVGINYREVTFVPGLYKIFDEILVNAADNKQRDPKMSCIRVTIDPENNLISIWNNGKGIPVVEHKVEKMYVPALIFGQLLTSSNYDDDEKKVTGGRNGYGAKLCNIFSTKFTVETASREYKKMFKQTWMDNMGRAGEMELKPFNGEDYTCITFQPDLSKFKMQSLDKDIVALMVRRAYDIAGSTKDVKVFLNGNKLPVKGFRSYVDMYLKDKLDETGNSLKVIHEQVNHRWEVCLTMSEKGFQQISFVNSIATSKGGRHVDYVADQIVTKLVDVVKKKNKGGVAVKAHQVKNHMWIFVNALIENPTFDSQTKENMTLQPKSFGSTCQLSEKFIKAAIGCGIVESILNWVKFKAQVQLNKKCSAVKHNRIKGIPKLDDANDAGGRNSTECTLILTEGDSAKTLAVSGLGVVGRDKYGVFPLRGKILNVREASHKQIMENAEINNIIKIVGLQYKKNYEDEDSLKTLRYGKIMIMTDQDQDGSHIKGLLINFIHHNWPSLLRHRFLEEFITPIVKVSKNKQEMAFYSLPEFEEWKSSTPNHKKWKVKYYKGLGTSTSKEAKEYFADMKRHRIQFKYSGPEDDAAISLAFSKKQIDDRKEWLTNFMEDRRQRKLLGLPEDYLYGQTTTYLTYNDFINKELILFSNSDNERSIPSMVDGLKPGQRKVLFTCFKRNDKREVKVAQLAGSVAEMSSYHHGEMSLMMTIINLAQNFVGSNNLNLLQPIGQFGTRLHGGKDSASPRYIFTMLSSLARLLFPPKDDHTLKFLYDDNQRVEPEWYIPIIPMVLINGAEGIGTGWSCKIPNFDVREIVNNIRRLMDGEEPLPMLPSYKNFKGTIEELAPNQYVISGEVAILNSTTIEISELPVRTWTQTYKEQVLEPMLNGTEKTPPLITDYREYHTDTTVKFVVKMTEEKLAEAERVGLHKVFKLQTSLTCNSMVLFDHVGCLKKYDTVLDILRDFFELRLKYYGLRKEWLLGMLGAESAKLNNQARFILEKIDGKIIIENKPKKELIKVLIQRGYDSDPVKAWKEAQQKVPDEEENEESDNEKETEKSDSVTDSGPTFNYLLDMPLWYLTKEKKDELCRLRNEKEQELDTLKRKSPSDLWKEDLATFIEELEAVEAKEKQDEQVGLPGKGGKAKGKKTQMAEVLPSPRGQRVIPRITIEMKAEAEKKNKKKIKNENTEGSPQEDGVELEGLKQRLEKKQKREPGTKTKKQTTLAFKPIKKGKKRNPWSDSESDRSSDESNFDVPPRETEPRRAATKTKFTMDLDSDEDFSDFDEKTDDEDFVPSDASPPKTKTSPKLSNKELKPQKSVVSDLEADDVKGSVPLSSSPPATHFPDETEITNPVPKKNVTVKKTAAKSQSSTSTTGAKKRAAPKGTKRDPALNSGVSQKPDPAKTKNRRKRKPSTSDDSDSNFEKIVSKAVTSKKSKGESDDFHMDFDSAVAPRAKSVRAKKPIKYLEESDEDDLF

Row | SMILES | GI50 (HepG2) [µM] | GI50 (HeLa) [µM] | GI50 (HL-60) [µM] | inhibition [1] | Activity (Salmon testes DNA) | inhibition [4] | Activity [2] | Activity [3]
1 | CN(C)CCN1CCN(C(=O)c2cnc3ccc4ccccc4c3c2)CC1 | > 50 | > 50 | > 50 | – | – | – | – | –
2 | CCOC(=O)c1cnc2c(ccc3ccccc32)c1 | ≥ 50 | > 50 | > 50 | – | – | – | – | –
3 | COc1cc(NS(C)(=O)=O)ccc1Nc1c2ccccc2nc2ccccc12 | – | – | – | Active | – | – | Active | –
4 | CN(C)CCN1CCN(C(=O)c2cnc3c(ccc4ccccc43)c2)CC1 | > 50 | > 50 | > 50 | – | – | – | – | –
5 | CCOC(=O)c1cnc2c(ccc3cc4c(cc32)OCCO4)c1 | > 50 | > 50 | > 50 | – | – | – | – | –
6 | CN(C)CCNC(=O)c1cnc2c(ccc3cc4c(cc32)OCCO4)c1 | > 50 | > 50 | 30 | – | – | – | – | –
7 | O=C(NCCN1CCOCC1)c1cnc2c(ccc3cc4c(cc32)OCCO4)c1 | > 50 | > 50 | 32.5 | – | – | – | – | –
8 | CCOC(=O)c1cnc2ccc3ccccc3c2c1 | ≥ 50 | > 50 | ≥ 50 | – | – | – | – | –
9 | O=C(NCCN1CCOCC1)c1cnc2ccc3ccccc3c2c1 | > 50 | > 50 | > 50 | – | – | – | – | –

Second part, led by results:

Row | GI50 (HepG2) [µM] | GI50 (HeLa) [µM] | GI50 (HL-60) [µM] | inhibition [1] | Activity (Salmon testes DNA) | inhibition [4] | SMILES | Activity [2] | Activity [3]
10 | > 50 | > 50 | > 50 | – | – | – | O=C(NCCN1CCOCC1)c1cnc2c(ccc3ccccc32)c1 | – | –
11 | 32.2 | > 50 | 29.8 | – | – | – | CN(C)CCNC(=O)c1cnc2c(ccc3ccccc32)c1 | – | –
12 | 27.8 | > 50 | 24.1 | – | Active | Dose-dependent effect | CN(C)CCNC(=O)c1cnc2ccc3ccccc3c2c1 | – | inactive
13 | 39.4 | > 50 | 33.8 | – | – | – | CN(C)CCN1CCN(C(=O)c2cnc3c(ccc4cc5c(cc43)OCCO5)c2)CC1 | – | –
